Target: T1, G1 APOL1 (Homo sapiens, UniProt O14791, I384M/S342G)
T1 construct: expressed in transfected cells
T1 sequence (O14791 28-398 S342G/I384M): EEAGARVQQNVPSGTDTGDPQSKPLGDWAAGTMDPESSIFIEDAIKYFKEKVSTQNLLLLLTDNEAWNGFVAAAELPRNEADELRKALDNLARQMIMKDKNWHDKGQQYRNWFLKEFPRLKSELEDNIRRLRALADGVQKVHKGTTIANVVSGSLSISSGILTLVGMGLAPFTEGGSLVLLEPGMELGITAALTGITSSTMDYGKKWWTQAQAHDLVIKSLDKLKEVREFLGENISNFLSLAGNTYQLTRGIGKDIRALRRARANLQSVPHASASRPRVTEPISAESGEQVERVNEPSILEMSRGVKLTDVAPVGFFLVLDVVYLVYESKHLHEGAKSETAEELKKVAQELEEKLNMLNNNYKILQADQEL
Assay: Acute APOL1 Thallium Assay with inducible stable clones of HEK 293 cells
Assay type: cell-based
Conditions: HEK 293 T-Rex cells expressing G1 APOL1; read-out: Thallium Assay (IC50)
Summary of the method: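 Readout: Tl+-triggered fluorescence, FLIPR, reflecting potassium flux through APOL1 pores after cells take up an AM-ester thallium indicator. Cells: HEK T-Rex stable clone G1 DC3.25, APOL1 G1 induced by tetracycline, seeded 26000 per well.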

Compound | IC50
C[C@H]1CN(C(=O)[C@H]2C[C@H](c3c(-c4ccc(F)cc4)[nH]c4c(F)cc(F)cc43)C2)CC[C@@H]1O [Compound 116] | > 1000 nM
O=C([C@H]1C[C@H](c2c(-c3ccc(F)cc3)[nH]c3c(F)cc(F)cc32)C1)N1CCCC(O)C1 (some centres unmarked) [Compound 150] | > 1000 nM
NC(=O)[C@H]1CCN(C(=O)[C@H]2C[C@H](c3c(-c4ccc(F)cc4)[nH]c4c(F)cc(F)cc43)C2)C1 [Compound 154] | > 1000 nM
O=C([C@H]1C[C@H](c2c(-c3ccc(F)cc3)[nH]c3c(F)cc(F)cc32)C1)N1CC(O)C(CO)C1 (some centres unmarked) [Compound 138] | > 1000 nM
CC(O)C1CCCN(C(=O)[C@H]2C[C@H](c3c(-c4ccc(F)cc4)[nH]c4c(F)cc(F)cc43)C2)C1 (some centres unmarked) [Compound 131] | > 1000 nM
O=C([C@H]1C[C@H](c2c(-c3ccc(F)cc3)[nH]c3c(F)cc(F)cc32)C1)N1CCCC[C@@H]1CCO [Compound 156] | > 1000 nM
NC(=O)[C@@H]1CCN(C(=O)[C@H]2C[C@H](c3c(-c4ccc(F)cc4)[nH]c4c(F)cc(F)cc43)C2)C1 [Compound 135] | > 1000 nM
O=C(NCC1(O)CCC1)[C@H]1C[C@H](c2c(-c3ccc(F)cc3)[nH]c3c(F)cc(F)cc32)C1 [Compound 143] | > 1000 nM
C[C@H](CO)N(C)C(=O)[C@H]1C[C@H](c2c(-c3ccc(F)cc3)[nH]c3c(F)cc(F)cc32)C1 [Compound 142] | 250 to 1000 nM
CN(CC(O)CO)C(=O)[C@H]1C[C@H](c2c(-c3ccc(F)cc3)[nH]c3c(F)cc(F)cc32)C1 (some centres unmarked) [Compound 158] | > 1000 nM
CC(CO)N1CCN(C(=O)[C@H]2C[C@H](c3c(-c4ccc(F)cc4)[nH]c4c(F)cc(F)cc43)C2)CC1 (mixture of isomers) [Compound 122] | > 1000 nM
CC(O)CNC(=O)[C@H]1C[C@H](c2c(-c3ccc(F)cc3)[nH]c3c(F)cc(F)cc32)C1 (some centres unmarked) [Compound 167] | 250 to 1000 nM
C[C@@H](O)[C@H](CO)NC(=O)[C@H]1C[C@H](c2c(-c3ccc(F)cc3)[nH]c3c(F)cc(F)cc32)C1 [Compound 155] | > 1000 nM
NC(=O)[C@H]1C[C@H](c2c(-c3ccc(F)cc3)[nH]c3c(F)cc(F)cc32)C1 [Compound 169] | 250 to 1000 nM
CC1(C)CN(C(=O)[C@H]2C[C@H](c3c(-c4ccc(F)cc4)[nH]c4c(F)cc(F)cc43)C2)CCC1O (some centres unmarked) [Compound 114] | > 1000 nM
O=C([C@H]1C[C@H](c2c(-c3ccc(F)cc3)[nH]c3c(F)cc(F)cc32)C1)N1CC(O)C(N2CCOCC2)C1 (some centres unmarked) [Compound 106] | > 1000 nM
O=C([C@H]1C[C@H](c2c(-c3ccc(F)cc3)[nH]c3c(F)cc(F)cc32)C1)N1CCCC(CCO)C1 (some centres unmarked) [Compound 128] | > 1000 nM
C[C@@H](O)[C@@H](CO)NC(=O)[C@H]1C[C@H](c2c(-c3ccc(F)cc3)[nH]c3c(F)cc(F)cc32)C1 [Compound 160] | 250 to 1000 nM
NC(=O)[C@H](CO)NC(=O)[C@H]1C[C@H](c2c(-c3ccc(F)cc3)[nH]c3c(F)cc(F)cc32)C1 [Compound 144] | 250 to 1000 nM
CO[C@H]1CCN(C(=O)[C@H]2C[C@H](c3c(-c4ccc(F)cc4)[nH]c4c(F)cc(F)cc43)C2)C1 [Compound 95] | > 1000 nM
CN(CC1(CO)CCOCC1)C(=O)[C@H]1C[C@H](c2c(-c3ccc(F)cc3)[nH]c3c(F)cc(F)cc32)C1 [Compound 120] | > 1000 nM
O=C([C@H]1C[C@H](c2c(-c3ccc(F)cc3)[nH]c3c(F)cc(F)cc32)C1)N1CCCC(CO)C1 (some centres unmarked) [Compound 147] | > 1000 nM
O=C([C@H]1C[C@H](c2c(-c3ccc(F)cc3)[nH]c3c(F)cc(F)cc32)C1)N1CC(OCC2CCCO2)C1 (some centres unmarked) [Compound 136] | > 1000 nM
O=C([C@H]1C[C@H](c2c(-c3ccc(F)cc3)[nH]c3c(F)cc(F)cc32)C1)N1CCCC[C@H]1CO [Compound 146] | > 1000 nM

Compound | IC50
O=C([C@H]1C[C@H](c2c(-c3ccc(F)cc3)[nH]c3c(F)cc(F)cc32)C1)N1CCOC(O)C1 (some centres unmarked) [Compound 115] | 250 to 1000 nM
CNC(=O)C(C)NC(=O)[C@H]1C[C@H](c2c(-c3ccc(F)cc3)[nH]c3c(F)cc(F)cc32)C1 (mixture of isomers) [Compound 9] | 250 to 1000 nM
O=C([C@H]1C[C@H](c2c(-c3ccc(F)cc3)[nH]c3c(F)cc(F)cc32)C1)N1CCC2(COC2)C1 [Compound 103] | > 1000 nM
CCN(CCO)C(=O)[C@H]1C[C@H](c2c(-c3ccc(F)cc3)[nH]c3c(F)cc(F)cc32)C1 [Compound 124] | 250 to 1000 nM
NC(=O)[C@H]1CCCN1C(=O)[C@H]1C[C@H](c2c(-c3ccc(F)cc3)[nH]c3c(F)cc(F)cc32)C1 [Compound 153] | 250 to 1000 nM
CC(C)N(CCO)C(=O)[C@H]1C[C@H](c2c(-c3ccc(F)cc3)[nH]c3c(F)cc(F)cc32)C1 [Compound 123] | > 1000 nM
O=C1C[C@H](NC(=O)[C@H]2C[C@H](c3c(-c4ccc(F)cc4)[nH]c4c(F)cc(F)cc43)C2)C(=O)N1 [Compound 165] | < 250 nM
CC1(C)CN(C(=O)[C@H]2C[C@H](c3c(-c4ccc(F)cc4)[nH]c4c(F)cc(F)cc43)C2)CCN1C(=O)[C@H]1C[C@@](C)(O)C1 [Compound 130] | > 1000 nM
O=C([C@H]1C[C@H](c2c(-c3ccc(F)cc3)[nH]c3c(F)cc(F)cc32)C1)N1CC2(CC(O)C2)C1 [Compound 137] | > 1000 nM
O=C([C@H]1C[C@H](c2c(-c3ccc(F)cc3)[nH]c3c(F)cc(F)cc32)C1)N1CCCCC1CO (some centres unmarked) [Compound 145] | > 1000 nM
O=C([C@H]1C[C@H](c2c(-c3ccc(F)cc3)[nH]c3c(F)cc(F)cc32)C1)N1CCN[C@H](CO)C1 [Compound 161] | > 1000 nM
O=C(NC1(CO)CCC1)[C@H]1C[C@H](c2c(-c3ccc(F)cc3)[nH]c3c(F)cc(F)cc32)C1 [Compound 6] | < 250 nM
CCN(C(=O)[C@H]1C[C@H](c2c(-c3ccc(F)cc3)[nH]c3c(F)cc(F)cc32)C1)C(C)CO (mixture of isomers) [Compound 111] | > 1000 nM
O=C(NCCOCCO)[C@H]1C[C@H](c2c(-c3ccc(F)cc3)[nH]c3c(F)cc(F)cc32)C1 [Compound 125] | < 250 nM
O=C([C@H]1C[C@H](c2c(-c3ccc(F)cc3)[nH]c3c(F)cc(F)cc32)C1)N1C[C@@H]2[C@@H](CO)[C@@H]2C1 [Compound 99] | > 1000 nM
O=C([C@H]1C[C@H](c2c(-c3ccc(F)cc3)[nH]c3c(F)cc(F)cc32)C1)N1CCO[C@H](CO)C1 [Compound 118] | > 1000 nM
O=C([C@H]1C[C@H](c2c(-c3ccc(F)cc3)[nH]c3c(F)cc(F)cc32)C1)N1C2CCC(C2)C1CO (some centres unmarked) [Compound 97] | > 1000 nM
O=C([C@H]1C[C@H](c2c(-c3ccc(F)cc3)[nH]c3c(F)cc(F)cc32)C1)N1CC[C@H](CO)C1 [Compound 140] | > 1000 nM
O=C1NCC[C@@H]1NC(=O)[C@H]1C[C@H](c2c(-c3ccc(F)cc3)[nH]c3c(F)cc(F)cc32)C1 [Compound 162] | 250 to 1000 nM
NC(=O)C1CCN(C(=O)[C@H]2C[C@H](c3c(-c4ccc(F)cc4)[nH]c4c(F)cc(F)cc43)C2)CC1 [Compound 133] | > 1000 nM
CCC(O)(CCCO)CNC(=O)[C@H]1C[C@H](c2c(-c3ccc(F)cc3)[nH]c3c(F)cc(F)cc32)C1 (some centres unmarked) [Compound 119] | > 1000 nM
O=C(NC1CC(O)C1)[C@H]1C[C@H](c2c(-c3ccc(F)cc3)[nH]c3c(F)cc(F)cc32)C1 (some centres unmarked) [Compound 5] | 250 to 1000 nM
O=C([C@H]1C[C@H](c2c(-c3ccc(F)cc3)[nH]c3c(F)cc(F)cc32)C1)N1CC(n2cccn2)C1 [Compound 96] | > 1000 nM
